Measurements: the Kinase Knowledgebase extract (Sharma et al. 2016)

Each compound was assayed against PIK3CA (human) (UniProt P42336) (assay: Inhibition of PIK3CA Kinase Activity).
Chain of PIK3CA (human) (P42336 whole entry, looked up): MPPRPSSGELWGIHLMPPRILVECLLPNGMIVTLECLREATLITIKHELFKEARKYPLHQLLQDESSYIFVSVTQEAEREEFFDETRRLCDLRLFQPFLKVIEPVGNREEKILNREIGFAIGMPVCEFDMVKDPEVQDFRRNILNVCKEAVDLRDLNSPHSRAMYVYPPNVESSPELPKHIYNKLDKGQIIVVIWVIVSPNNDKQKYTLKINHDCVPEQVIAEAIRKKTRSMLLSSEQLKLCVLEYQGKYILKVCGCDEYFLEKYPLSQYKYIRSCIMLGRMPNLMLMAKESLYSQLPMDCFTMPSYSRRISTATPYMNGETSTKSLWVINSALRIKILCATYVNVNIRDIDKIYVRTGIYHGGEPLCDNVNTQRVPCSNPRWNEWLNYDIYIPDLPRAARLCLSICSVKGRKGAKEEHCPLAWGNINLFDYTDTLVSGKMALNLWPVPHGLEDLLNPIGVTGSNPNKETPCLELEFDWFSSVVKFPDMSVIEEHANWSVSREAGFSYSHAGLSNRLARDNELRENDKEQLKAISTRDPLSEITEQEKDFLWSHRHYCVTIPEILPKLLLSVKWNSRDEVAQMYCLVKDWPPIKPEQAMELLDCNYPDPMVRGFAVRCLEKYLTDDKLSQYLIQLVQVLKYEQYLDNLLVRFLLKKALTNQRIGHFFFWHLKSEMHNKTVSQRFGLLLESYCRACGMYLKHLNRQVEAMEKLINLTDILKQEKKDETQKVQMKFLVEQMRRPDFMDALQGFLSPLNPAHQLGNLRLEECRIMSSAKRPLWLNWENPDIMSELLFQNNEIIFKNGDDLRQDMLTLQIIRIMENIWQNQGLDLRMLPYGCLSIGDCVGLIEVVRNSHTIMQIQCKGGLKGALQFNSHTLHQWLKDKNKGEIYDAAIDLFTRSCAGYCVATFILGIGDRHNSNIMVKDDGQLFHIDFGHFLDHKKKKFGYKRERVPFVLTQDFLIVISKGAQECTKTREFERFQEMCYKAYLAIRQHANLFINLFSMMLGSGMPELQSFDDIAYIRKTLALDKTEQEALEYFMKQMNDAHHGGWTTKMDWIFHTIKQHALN

IC50	SMILES
50 to 250 nM	CC1(C)CCc2ncnc(N3CCOc4ccc(-c5cnc(N)c(S(=O)(=O)NCC(F)(F)F)c5)cc4C3)c2C1
10 to 50 nM	Cc1ccc2ncnc(N3CCOc4ccc(-c5ccc6nc(C)[nH]c6c5)cc4C3)c2c1
10 to 50 nM	Cc1nc(C)c(CC2CC2)c(N2CCOc3ccc(-c4cnc5nc(C)[nH]c5c4)cc3C2)n1
50 to 250 nM	Cc1nc2ncc(-c3ccc4c(c3)CN(c3ncnc(C)c3C)CCO4)cc2[nH]1
10 to 50 nM	Cc1nc2ccc(-c3ccc4c(c3)CN(c3ncnc5ccc(Cl)cc35)CCO4)cc2[nH]1
50 to 250 nM	CN1C[C@@H]2C[C@H]1CN2S(=O)(=O)c1cc(-c2ccc3c(c2)CN(c2ncnc4c2CC(C)(C)CC4)CCO3)cnc1N
50 to 250 nM	CC1(C)CCc2ncnc(N3CCOc4ccc(-c5ccc6nc(N)[nH]c6c5)cc4C3)c2C1
10 to 50 nM	Cc1nc(N2CCOc3ccc(-c4ccc(-c5ncc[nH]5)cc4)cc3C2)c2ccccc2n1
10 to 50 nM	Cc1nc2ncc(-c3ccc4c(c3)CN(c3ncnc5c3CC(C)CC5)CCO4)cc2[nH]1 (stereo unspecified)
≤ 10 nM	CC1(C)CCc2ncnc(N3CCOc4ccc(-c5cnc(N)c(S(N)(=O)=O)c5)cc4C3)c2C1
50 to 250 nM	Cc1ncnc(N2CCOc3ccc(-c4ccc5sc(N)nc5c4)cc3C2)c1Cc1ccc(F)cc1
10 to 50 nM	Cc1nc2ccc(-c3ccc4c(c3)CN(c3ncnc(C)c3Cc3ccc(F)c(F)c3)CCO4)cc2[nH]1
10 to 50 nM	COCCOCc1nc2c(c(N3CCOc4ccc(-c5cnc6nc(C)[nH]c6c5)cc4C3)n1)CC(C)(C)CC2
≤ 10 nM	COc1ccc2c(N3CCOc4ccc(-c5ccc6nc[nH]c6c5)cc4C3)nc(C)nc2c1
10 to 50 nM	Nc1nc2ccc(-c3ccc4c(c3)CN(c3ccnc5ccccc35)CCO4)cc2[nH]1
10 to 50 nM	Cc1nc2ccc(-c3ccc4c(c3)CN(c3ncnc(C)c3Cc3ccc(Cl)cc3)CCO4)cc2[nH]1
10 to 50 nM	CC1(C)CCc2ncnc(N3CCOc4ccc(-c5cnc(N)c(S(=O)(=O)N6CCC(O)C6)c5)cc4C3)c2C1 (stereo unspecified)
50 to 250 nM	CN(C)CCNS(=O)(=O)c1cc(-c2ccc3c(c2)CN(c2ncnc4c2CC(C)(C)CC4)CCO3)cnc1N
10 to 50 nM	CC1(C)C=Cc2ncnc(N3CCOc4ccc(-c5ccc(-c6ncc[nH]6)cc5)cc4C3)c2C1
≤ 10 nM	CC1(C)CCc2ncnc(N3CCOc4ccc(-c5cnc(N)c(S(=O)(=O)NCCCN)c5)cc4C3)c2C1
250 to 1000 nM	Cn1ccc2cc(-c3ccc4c(c3)CN(c3ccnc5ccccc35)CCO4)cnc21

IC50	SMILES
50 to 250 nM	CC1(C)CCc2ncnc(N3CCOc4ccc(-c5cnc(C#N)c(NS(C)(=O)=O)c5)cc4C3)c2C1
≤ 10 nM	COC1Cc2nc(CN(C)C)nc(N3CCOc4ccc(-c5cnc6nc(C)[nH]c6c5)cc4C3)c2CC1(C)C (stereo unspecified)
50 to 250 nM	Cc1nc2cc(-c3ccc4c(c3)CN(c3nc(CN(C)C)nc(C)c3Br)CCO4)ccc2[nH]1
≤ 10 nM	Cc1nc2cc(-c3ccc4c(c3)CN(c3nc(CO)nc(C)c3Cc3ccc(F)cc3)CCO4)ccc2[nH]1
50 to 250 nM	CC1(C)CCc2ncnc(N3CCOc4ccc(-c5cnc(N)c(S(=O)(=O)N6CC(F)(F)C6)c5)cc4C3)c2C1
10 to 50 nM	Cc1nc2cc(-c3ccc4c(c3)CN(c3nc(CCN5CCCC5)nc5c3CC(C)(C)CC5)CCO4)cnc2[nH]1
≤ 10 nM	COc1cc2ncnc(N3CCOc4ccc(-c5cnc6nc(N)[nH]c6c5)cc4C3)c2cc1OC
50 to 250 nM	CC1(C)CCc2ncnc(N3CCOc4ccc(-c5ccc6nc[nH]c6c5)cc4C3)c2C1
250 to 1000 nM	Cc1nc(N2CCOc3ccc(-c4ccc(N)nc4)cc3C2)c2ccccc2n1
≤ 10 nM	Cc1nc(CN(C)C)nc(N2CCOc3ccc(-c4ccc5[nH]c(CF)nc5c4)cc3C2)c1Cc1ccc(F)cc1
≤ 10 nM	COC(=O)Nc1nc2ncc(-c3ccc4c(c3)CN(c3ncnc5c3CC(C)(C)C=C5)CCO4)cc2[nH]1
≤ 10 nM	CNS(=O)(=O)c1cc(-c2ccc3c(c2)CN(c2ncnc4c2CC(C)(C)CC4)CCO3)cnc1N
10 to 50 nM	CCNc1nc2ccc(-c3ccc4c(c3)CN(c3nc(C)nc5ccccc35)CCO4)cc2[nH]1
≤ 10 nM	CN(C)Cc1nc2c(c(N3CCOc4ccc(-c5cnc6nc(C7CC7)[nH]c6c5)cc4C3)n1)CC(C)(C)CC2
≤ 10 nM	COc1ccc2c(N3CCOc4ccc(-c5cnc(Cl)c(NS(C)(=O)=O)c5)cc4C3)ncnc2c1
250 to 1000 nM	COc1ccc2c(N3CCOc4ccc(-c5cccc(C(=O)O)c5)cc4C3)nc(C)nc2c1
10 to 50 nM	CCNc1nc2ccc(-c3ccc4c(c3)CN(c3ccnc5cc(OC)c(OC)cc35)CCO4)cc2[nH]1
≤ 10 nM	Cc1nc(CN(C)C)nc(N2CCOc3ccc(-c4ccc5[nH]c(CF)nc5c4)cc3C2)c1C(C)C
50 to 250 nM	Cc1nc2ncc(-c3ccc4c(c3)CN(c3ncnc5c3CCC(C(F)(F)F)C5)CCO4)cc2[nH]1 (stereo unspecified)
10 to 50 nM	COC(=O)Nc1nc2ccc(-c3ccc4c(c3)CN(c3ncnc5ccccc35)CCO4)cc2[nH]1
50 to 250 nM	Cc1nc2ccc(-c3ccc4c(c3)CN(c3ncnc5cc(C(F)(F)F)ccc35)CCO4)cc2[nH]1

IC50	SMILES
50 to 250 nM	CC(C)(O)CC[S+]([O-])c1cc(-c2ccc3c(c2)CN(c2ncnc4c2CC(C)(C)CC4)CCO3)cnc1N (stereo unspecified)
50 to 250 nM	Cc1nc2c(c(N3CCOc4ccc(-c5cnc(N)c(S(=O)(=O)N(C)C)c5)cc4C3)n1)CC(C)(C)CC2
50 to 250 nM	Cc1nc2ncc(-c3ccc4c(c3)CN(c3nc(-c5ccccn5)nc5c3CC(C)(C)CC5)CCO4)cc2[nH]1
50 to 250 nM	Cc1nc2c(c(N3CCOc4ccc(-c5cnc(N)c(S(=O)(=O)N[C@@H]6CCN(C)C6)c5)cc4C3)n1)CC(C)(C)CC2
≤ 10 nM	CCc1c(C)nc(CN(C)C)nc1N1CCOc2ccc(-c3cnc4sc(N)nc4c3)cc2C1
10 to 50 nM	Cc1nc2ncc(-c3ccc4c(c3)CN(c3ncnc(C)c3C(C)C)CCO4)cc2[nH]1
250 to 1000 nM	Cc1c(N2CCOc3ccc(-c4cnc5nc(C6CC6)[nH]c5c4)cc3C2)ncnc1N(C)[C@@H](C)c1ccccc1
50 to 250 nM	CC1(C)CCc2ncnc(N3CCOc4ccc(-c5cnc(N)c(S(=O)(=O)NC[C@@H]6CCCNC6)c5)cc4C3)c2C1
50 to 250 nM	CC1(C)CCc2ncnc(N3CCOc4ccc(-c5cnc(N)c(S(=O)(=O)N6CCCC6)c5)cc4C3)c2C1
10 to 50 nM	CC1(C)CCc2ncnc(N3CCOc4ccc(-c5cnc(N)c(S(C)(=O)=O)c5)cc4C3)c2C1
10 to 50 nM	COc1ccc(-c2ccc3c(c2)CN(c2nc(CN(C)C)nc4c2CC(C)(C)CC4)CCO3)cc1S(C)(=O)=O
≤ 10 nM	COc1ccc2c(N3CCOc4ccc(-c5cnc6[nH]cnc6c5)cc4C3)nc(CN(C)C)nc2c1
≤ 10 nM	CCNc1nc2ncc(-c3ccc4c(c3)CN(c3ncnc(C)c3Cc3ccc(F)cc3)CCO4)cc2[nH]1
50 to 250 nM	CC1(C)CCc2ncnc(N3CCOc4ccc(-c5cnc(N)c(CS(C)(=O)=O)c5)cc4C3)c2C1
10 to 50 nM	Cc1nc2ccc(-c3ccc4c(c3)CN(c3ncnc5c3CC(C)(C)CC5)CCO4)cc2[nH]1
50 to 250 nM	CC1(C)CCc2ncnc(N3CCOc4ccc(-c5cnc(N)c(S(=O)(=O)NC[C@H]6CCCN6)c5)cc4C3)c2C1
10 to 50 nM	CC(=O)OCc1nc2c(c(N3CCOc4ccc(-c5cnc6nc(C)[nH]c6c5)cc4C3)n1)CC(C)(C)CC2
≤ 10 nM	Cc1nc2ncc(-c3ccc4c(c3)CN(c3nc(CN5CC[C@@H](F)C5)nc5c3CC(C)(C)CC5)CCO4)cc2[nH]1
50 to 250 nM	CNC(=O)c1ccc(-c2ccc3c(c2)CN(c2nc(CN(C)C)nc4c2CC(C)(C)CC4)CCO3)cc1
